Measured values: ChEMBL document CHEMBL3988442, “University of Dundee, Small-Polar-MMV Screening Library” (2021)
Values joined by “and” are separate entries in the source; they are usually repeats but may differ in a detail not shown here. Equal entries are not always repeated.

Key:
[1] = To identify inhibition of the IFN signalling (Jak-Stat) pathway via expression of an eGFP reporter gene under the control of an IFN-stimulated response element (ISRE) containing MxA promoter.; format: functional, Homo sapiens
[2] = biological target: AMP-activated protein kinase, AMPK; test: AMP-dependent Kinase enzyme assay. An in vitro enzyme assay that detects ADP turnover that is directly proportional to AMPK activity. This uses naive AMPK that is activated during the assay with MK-8722; format: functional, Homo sapiens
Leishmania donovani = test: Leishmania intramacrophage assay; format: functional, organism-based; conditions: for IC50: Leishmania donovani
Trypanosoma brucei = test: Trypanosoma brucei 72 hour study; format: functional, organism-based; conditions: for IC50: Trypanosoma brucei, 72 h
Plasmodium falciparum = test: Calibr Malaria Delayed Death Assay SOP; format: functional, organism-based
Schistosoma mansoni = test: High throughput screening of compounds against Schistosoma mansoni motility; format: functional; parameters: dose or concentration left out as unconfirmed
Histidine--tRNA ligase = biological target: T1, Histidine--tRNA ligase (Leishmania infantum, UniProt A4I591); test: Leishmania infantum Histidine tRNA synthetase (LdHisRS); format: functional
T1 sequence (A4I591 whole entry): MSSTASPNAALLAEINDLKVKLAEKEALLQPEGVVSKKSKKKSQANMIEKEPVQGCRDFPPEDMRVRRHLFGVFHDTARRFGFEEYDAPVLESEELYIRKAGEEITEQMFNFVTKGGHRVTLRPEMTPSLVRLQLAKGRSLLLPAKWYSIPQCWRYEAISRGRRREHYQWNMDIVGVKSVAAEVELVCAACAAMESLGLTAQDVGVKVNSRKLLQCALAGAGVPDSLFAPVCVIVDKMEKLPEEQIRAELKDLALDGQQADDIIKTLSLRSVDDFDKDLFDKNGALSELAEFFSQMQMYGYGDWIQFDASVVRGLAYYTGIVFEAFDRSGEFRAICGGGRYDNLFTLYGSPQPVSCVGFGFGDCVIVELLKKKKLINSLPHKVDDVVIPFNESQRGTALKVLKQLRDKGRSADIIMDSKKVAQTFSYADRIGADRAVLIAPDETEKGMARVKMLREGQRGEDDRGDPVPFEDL

Wolbachia pipientis = test: Anti-Wolbachia Cell-Based Screen; format: functional; conditions: Wolbachia pipientis
[3] = microbe, parasite or virus in culture; conditions: Mycobacterium tuberculosis, 96 h, read-out: pIC50 (converted)
[4] = microbe, parasite or virus in culture; conditions: Mycobacterium tuberculosis, 72 h, read-out: pIC50 (converted)
[5] = biological target: Chromo domain-containing protein 1 (Saccharomyces cerevisiae (strain ATCC 204508 / S288c) (Baker's yeast), UniProt P32657); test: ScCHD-1 Enzyme Inhibition Assay; format: functional
Sequence of Chromo domain-containing protein 1 (P32657 whole entry, the tested form may be a part): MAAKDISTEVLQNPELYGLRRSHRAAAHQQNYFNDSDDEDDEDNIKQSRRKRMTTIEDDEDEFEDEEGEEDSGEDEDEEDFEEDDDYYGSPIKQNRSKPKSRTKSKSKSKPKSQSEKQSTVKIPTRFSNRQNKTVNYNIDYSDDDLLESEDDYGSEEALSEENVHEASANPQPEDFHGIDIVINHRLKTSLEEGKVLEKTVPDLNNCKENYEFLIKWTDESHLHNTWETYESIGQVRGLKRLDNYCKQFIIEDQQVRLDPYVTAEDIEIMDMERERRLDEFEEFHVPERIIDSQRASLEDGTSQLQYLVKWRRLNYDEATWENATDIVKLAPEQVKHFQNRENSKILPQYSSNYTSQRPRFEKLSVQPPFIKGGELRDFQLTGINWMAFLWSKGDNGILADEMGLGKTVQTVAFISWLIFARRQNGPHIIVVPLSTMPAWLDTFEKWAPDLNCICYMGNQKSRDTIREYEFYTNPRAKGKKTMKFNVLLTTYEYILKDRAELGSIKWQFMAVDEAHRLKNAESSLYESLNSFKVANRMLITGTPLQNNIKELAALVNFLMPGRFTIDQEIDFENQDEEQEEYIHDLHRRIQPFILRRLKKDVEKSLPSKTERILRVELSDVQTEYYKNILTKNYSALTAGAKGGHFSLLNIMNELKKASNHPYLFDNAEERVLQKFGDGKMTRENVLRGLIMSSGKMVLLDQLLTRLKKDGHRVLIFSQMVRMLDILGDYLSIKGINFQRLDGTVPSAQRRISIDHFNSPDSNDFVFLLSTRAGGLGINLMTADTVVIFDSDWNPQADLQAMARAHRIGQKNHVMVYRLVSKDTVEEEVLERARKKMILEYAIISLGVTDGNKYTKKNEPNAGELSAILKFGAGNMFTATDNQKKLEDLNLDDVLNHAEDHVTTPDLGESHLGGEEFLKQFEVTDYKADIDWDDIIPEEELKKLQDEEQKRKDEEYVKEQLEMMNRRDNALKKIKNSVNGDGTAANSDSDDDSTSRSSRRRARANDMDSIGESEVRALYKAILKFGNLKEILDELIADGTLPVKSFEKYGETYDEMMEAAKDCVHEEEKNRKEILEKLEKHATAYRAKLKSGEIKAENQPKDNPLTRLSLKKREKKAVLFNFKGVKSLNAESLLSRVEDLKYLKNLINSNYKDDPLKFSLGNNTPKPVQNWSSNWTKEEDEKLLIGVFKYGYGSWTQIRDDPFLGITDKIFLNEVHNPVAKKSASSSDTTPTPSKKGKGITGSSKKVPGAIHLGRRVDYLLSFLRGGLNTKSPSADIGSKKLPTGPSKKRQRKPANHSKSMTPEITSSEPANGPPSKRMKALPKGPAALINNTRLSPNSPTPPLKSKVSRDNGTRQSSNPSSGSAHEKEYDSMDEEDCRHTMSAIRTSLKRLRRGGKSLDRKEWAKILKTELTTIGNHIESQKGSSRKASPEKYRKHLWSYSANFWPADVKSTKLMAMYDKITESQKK

SMILES | pIC50 [1] | further results
CC(C)(C)C(=O)N1C[C@H](c2ccsc2)[C@H]2CN(Cc3cccs3)CC[C@H]21.Cl | 4.58 and 4.539 | –
c1cnn(CC2CCCN2c2ncnc3sccc23)c1 (centres undefined) | 5.137 and 5.086 | –
CC(C)N1Cc2c(C(=O)N3CCOCC3)nn(C)c2C1.O=C(O)C(F)(F)F.O=C(O)C(F)(F)F | < 4.21 | –
O=C(Cc1noc2ccccc12)N1CCCC1c1noc(C2CC2)n1 (centres undefined) | 4.845 and 4.787 | –
CC(C)n1ccc(-c2cc(C(=O)N3CCCC3)c3ccccn23)n1 | < 4.21 | pIC50 [2]: < 4
Cc1nc[nH]c1CN(C)CC1CCCN(CCc2ccc(Cl)cc2)C1 (centres undefined) | 4.612 and 4.41 | pIC50 (Leishmania donovani): 5.148; IC50 (Leishmania donovani): 8.56 µM; pIC50 (Trypanosoma brucei): 5.168 and 5.164; IC50 (Trypanosoma brucei): 6.79 µM; pIC50 (Plasmodium falciparum): 6.162; IC50 (Plasmodium falciparum; Plasmodium falciparum): 0.565 µM; Percent Effect (Schistosoma mansoni): 102.7%
O=C(O)C(F)(F)F.O=C(c1ncccn1)N1C[C@H]2CCC[C@@]2(COCc2cccnc2)C1 | < 4.21 | –
Cc1n[nH]cc1CNc1ccc2c(c1)CN(C(=O)OC(C)(C)C)CC2 | 4.816 and 4.848 | –
O=C(O)C(F)(F)F.O=C(O)C(F)(F)F.O=C(O)C(F)(F)F.c1ccc(CO[C@@H]2CO[C@@]3(CCN(Cc4ccccn4)C3)C2)nc1 | < 4.21 | –
Cc1cc(-c2cnc(N3CCCC(C)C3)nc2-c2cccnc2C)on1.Cl (centres undefined) | 4.421 and 4.521 | –
CC(=O)N1C[C@@H](c2ccsc2)[C@@H]2CN(Cc3cccc(Cl)c3)CC[C@@H]21 | 4.483 and 4.43 | –
CCC(C)NC(=O)NCCCn1nc2ccccn2c1=O (centres undefined) | < 4.21 | IC50 (Histidine--tRNA ligase): > 100 µM
Cc1ccc(CC(=O)Nc2cc(C(C)C)n[nH]2)cn1 | – | pIC50 (Leishmania donovani): 4.917; IC50 (Leishmania donovani): 11.7 µM; pIC50 [2]: < 4; pIC50 (Trypanosoma brucei): 4.869 and 4.956; IC50 (Trypanosoma brucei): 12.7 µM
CCn1c(C2CCCN(Cc3nccn3CCOC)C2)nn(C)c1=O (centres undefined) | < 4.21 | –
Cc1cc(-c2cnc(NCc3cccnc3)nc2C(C)C)on1 | 4.396 and 4.538 | –
Cc1ccc(S(=O)(=O)N2C[C@H]3C[C@H](NC(=O)c4ccnn4C)[C@H]3C2)cc1 | 5.601 and 5.47 and 5.597 and 5.592 | –
Cc1cc(CN2CCCC2c2noc(C3CC3)n2)c2ccccc2n1 (centres undefined) | 5.12 and 5.038 | –

SMILES | pIC50 [1] | further results
Nc1nccc(-c2c[nH]nc2C2CCCCC2)n1 | 4.943 and 4.951 | –
COc1c(CNC2CCSc3ccc(F)cc32)c(C)nn1C.Cl (centres undefined) | 4.845 and 5.142 | IC50 (Wolbachia pipientis): > 10 µM
COc1cccc(CN2CCN(c3ccc4nncn4n3)C(C)C2)c1 (centres undefined) | 4.923 and 4.922 | –
COc1ccc(-c2nnc(SC(C)C(=O)NC3CC3)[nH]2)c(OC)c1 (centres undefined) | 4.665 and 4.584 | –
COc1cc(CN(C)C(=O)Cc2c(C)nn(C)c2C)ccc1OC(F)F | 5.786 [middle of 4 runs] | Percent Effect (Schistosoma mansoni): -34.16%
CCc1ccc(CN2C[C@@H]3OCCN(c4ccnc(N(C)C)n4)[C@@H]3C2)o1.O=C(O)C(F)(F)F | 5.071 and 5.204 | –
COc1ncccc1NC(=O)N(Cc1ccc(C)o1)C1CC1 | 4.53 and 4.637 | –
CC(C)c1n[nH]c(C(=O)Nc2ccncc2)c1Br | 4.519 and 4.533 | IC50 (Leishmania donovani): > 50.1 µM
Cc1nc(C)n(CC2CCCN(c3ncnc4c3CCC4)C2)n1 (centres undefined) | 5.177 and 5.243 | –
CCS(=O)(=O)N1CCCc2ccc(NC(=O)Cc3ccc(F)cc3)cc21 | 4.555 and 4.597 | –
COc1cccc(CNc2cnn(C)c(=O)c2Cl)c1 | 4.709 and 5.107 | –
Cc1nc(CCNC(=O)NCc2ccc(N(C)C)nc2)cs1 | < 4.21 | –
Cc1noc(NC(=O)c2ccc(C)c(F)c2)n1 | 4.682 and < 4.57 | IC50 [3]: 27.1 µM; IC50 [4]: 30.5 µM
O=C1NCCN1C1CCCN(Cc2coc(-c3ccc(F)cc3)n2)C1 (centres undefined) | 4.93 and 4.918 | –
CCS(=O)(=O)N1CCc2ccc(NC(=O)Nc3cccc(SC)c3)cc21 | 5.726 [middle of 4 runs] | –
COCC1c2c(cnn2CC2CC2)CCN1Cc1ccc(OC)cc1 (centres undefined) | 5.287 and 5.465 | –
N#Cc1c(F)cccc1N1CCN(S(=O)(=O)c2cccs2)CC1 | 4.537 and 4.564 | Percent Effect (Schistosoma mansoni): 35.72%; IC50 [5]: > 29.5 µM
